Series [1] in a line: CLint (intrinsic clearance) assay, microsomal incubation. Type of series: in vitro ADME, Human. The note with it: NADPH, 37° C., up to 30 min; for microsomal CLint at 0.8 μM: human, liver microsomes, pH 7.4, human liver microsomes 0.5 mg/mL protein; for Human Clint: human liver microsomes 0.5 mg/mL protein. As to the method:
2. CLint (Intrinsic Clearance) Assay
A Tecan Genesis workstation (RWS ASY 150/8) was used to perform the microsomal incubations. Analysis was carried out using a Waters ACQUITY UPLC system coupled to an ABSciex API3000 mass spectrometer. Data analysis was performed using Assay Explorer (Symyx).
0.1 M potassium phosphate buffer pH 7.4 containing 1 mM MgCl2
15 mM NADPH in phosphate buffer
5.0 mg protein/mL liver microsomes in phosphate buffer
Each experiment consists of 12 test and 2 reference compounds. The reference compounds are incubated as a cocktail.
Dilution of test compounds was done in 2 steps from a 10 mM DMSO stock solution. First 4 μL stock solution was added to 196 μL of 20% DMSO in potassium phosphate buffer pH 7.4. In a second step 10 μL of the first dilution were added to […] potassium phosphate buffer and 100 μL internal standard solution to a final concentration of 0.8 μM. 100 μL of the final compound dilution were aliquoted into a 96 deep well plate. 12.5 μL liver microsomes were added to each well (0.5 mg/mL final protein concentration) and the samples preincubated for 5 min at 37° C. and 800 rpm agitation.
After the preincubation, 250 μL cold acetonitrile were added to the 0 min samples to prevent a reaction. Following this, 12.5 μL NADPH solution were added to all wells to start the incubation, with the exception of the 0 min and 30 min controls without cofactor, where the NADPH was substituted for phosphate buffer.
The incubations were stopped after 5, 10, 20 and 30 min by adding 250 μL cold acetonitrile to the individual wells.
The quenched samples were then centrifuged at 4000 g for 1 h at 4° C. 100 μL of the supernatant were transferred into 96 well plates for analysis.
The metabolic stability of each compound was determined by measurement of the change in LC-MS/MS peak area over time. Assay Explorer software was used to automatically calculate the slope k of the decline. The intrinsic clearance (CLint) of each compound was then calculated according to the formula: CLint(μL/min/mg protein)=k1000/protein concentration.
CLint is shown for each compound in Table 3 below.
On the technique in general: Liver microsomes are a subcellular fraction often used to study metabolism.

The subject of a further series is Wnt pathway. The series is described as follows: Cellular assay for Wnt pathway activity (luciferase reporter cell based assay). The note with it: 24 h, HEK293 luciferase reporter cell line (ER-DSH, TCF dependent promoter), induced with estrogen (1 μM), read-out: 7df3 IC50. (In a reporter assay the amount or activity of a reporter protein is the signal.)

We go through 25 compounds from patent US9926319B2, “Pyridyl piperidines” (MERCK PATENT GMBH, priority 2014, dated 2018).

SMILES strings stand for the structures.

One may read the microsomal CLint as the rate of metabolic loss divided by the concentration. In general, IC50 refers to the concentration that inhibits the measured activity by half. On to `O=C1NCCC12CCN(c1c(Cl)cncc1-c1ccc(-c3cnn([C@H]4CCC[C@@H]4O)c3)cc1)CC2` (racemic) [Example 56, 8-(3-Chloro-5-{4-[1-((1S,2S)-2-hydroxy-cyclopentyl)-1H-pyrazol-4-yl]-phenyl}-pyridin-4-yl)-2,8-diaza-spiro[4.5]decan-1-one], for which the intrinsic clearance (microsomal CLint) at 0.8 μM in series [1] was 44 µL/min/mg. In the series on Wnt pathway, the IC50 was found to be 7.6 nM.

Consider `O=C1NCC2(CCN(c3c(Cl)cncc3-c3ccc(-c4cnn([C@H]5CCC[C@@H]5O)c4)cc3)CC2)O1` (racemic) [Example 57, 8-(3-Chloro-5-{4-[1-((1S,2S)-2-hydroxy-cyclopentyl)-1H-pyrazol-4-yl]-phenyl}-pyridin-4-yl)-1-oxa-3,8-diaza-spiro[4.5]decan-2-one], for which the intrinsic clearance (microsomal CLint) at 0.8 μM in series [1] was 32 µL/min/mg. Further, in the series with Wnt pathway, the concentration for half-maximal inhibition (IC50) worked out at 18 nM.

`CC1NC(=O)OC12CCN(c1c(Cl)cncc1-c1ccc3c(c1)CS(=O)(=O)N3C)CC2` (racemic) [Example 96, 8-[3-Chloro-5-(1-methyl-2,2-dioxo-2,3-dihydro-1H-2l6-benzo[c]isothiazol-5-yl)-pyridin-4-yl]-4-methyl-1-oxa-3,8-diaza-spiro[4.5]decan-2-one]: the microsomal CLint at 0.8 μM in series [1] is 39 µL/min/mg. For the same compound, the half-inhibitory concentration (IC50) in the series with Wnt pathway stood at 4.2 nM.

`CC1NC(=O)OC12CCN(c1c(Cl)cncc1-c1ccc(-c3cnn(C)c3)cc1)CC2` (racemic) [Example 97, 8-{3-Chloro-5-[4-(1-methyl-1H-pyrazol-4-yl)-phenyl]-pyridin-4-yl}-4-methyl-1-oxa-3,8-diaza-spiro[4.5]decan-2-one]: the intrinsic clearance (microsomal CLint) at 0.8 μM in series [1] came to 26 µL/min/mg. Further, the half-inhibitory concentration (IC50) with Wnt pathway came to 42 nM.

On to `Cn1ncc2cc(-c3cncc(Cl)c3N3CCC4(CC3)CC(=O)NC4=O)ccc21` [Example 1, 8-[3-Chloro-5-(1-methyl-1H-indazol-5-yl)-pyridin-4-yl]-2,8-diaza-spiro[4.5]decane-1,3-dione], for which the intrinsic metabolic clearance (microsomal CLint) at 0.8 μM in series [1] was 11 µL/min/mg. Moreover, the IC50 with Wnt pathway amounted to 3.4 nM.

As to `Cn1ncc2cc(-c3cncc(Cl)c3N3CCC4(CC3)NC(=O)NC4=O)ccc21` [Example 2, 8-[3-Chloro-5-(1-methyl-1H-indazol-5-yl)-pyridin-4-yl]-1,3,8-triaza-spiro[4.5]decane-2,4-dione], the microsomal CLint at 0.8 μM in series [1] amounted to 15 µL/min/mg. Further, in the series on Wnt pathway, the half-inhibitory concentration (IC50) is 46 nM.

In the case of `O=C1NCCC12CCN(c1c(Cl)cncc1-c1ccc(-c3cnn(CCO)c3)cc1)CC2` [Example 5, 8-(3-Chloro-5-{4-[1-(2-hydroxy-ethyl)-1H-pyrazol-4-yl]-phenyl}-pyridin-4-yl)-2,8-diaza-spiro[4.5]decan-1-one], in series [1], the “Human Clint” value amounted to 40 µL/min/mg.

Regarding `Nc1n[nH]c2cc(-c3cncc(Cl)c3N3CCC4(CCNC4=O)CC3)ccc12` [Example 7, 8-[3-(3-Amino-1H-indazol-6-yl)-5-chloro-pyridin-4-yl]-2,8-diaza-spiro[4.5]decan-1-one], the “Human Clint” value in series [1] was 27 µL/min/mg.

With `Cn1cc(-c2ccc(-c3cncc(Cl)c3N3CCC4(CC3)CNC(=O)O4)cc2)cn1` [Example 9, 8-{3-Chloro-5-[4-(1-methyl-1H-pyrazol-4-yl)-phenyl]-pyridin-4-yl}-1-oxa-3,8-diaza-spiro[4.5]decan-2-one], the “Human Clint” value in series [1] was found to be 40 µL/min/mg.

With `Cn1cc(-c2ccc(-c3cncc(Cl)c3N3CCC4(CC3)NC(=O)NC4=O)cc2)cn1` [Example 13, 8-{3-Chloro-5-[4-(1-methyl-1H-pyrazol-4-yl)-phenyl]-pyridin-4-yl}-1,3,8-triaza-spiro[4.5]decane-2,4-dione], the microsomal CLint at 0.8 μM in series [1] is under 10 µL/min/mg.

For `Cc1nc(-c2ccc(-c3cncc(Cl)c3N3CCC4(CCNC4=O)CC3)cc2)cn1C` [Example 18, 8-{3-Chloro-5-[4-(1,2-dimethyl-1H-imidazol-4-yl)-phenyl]-pyridin-4-yl}-2,8-diaza-spiro[4.5]decan-1-one], the “Human Clint” value in series [1] amounted to 13 µL/min/mg.

Regarding `Cn1nc(N)c2ccc(-c3cncc(Cl)c3N3CCC4(CCNC4=O)CC3)cc21` [Example 24, 8-[3-(3-Amino-1-methyl-1H-indazol-6-yl)-5-chloro-pyridin-4-yl]-2,8-diaza-spiro[4.5]decan-1-one], the “Human Clint” value in series [1] turned out to be 78 µL/min/mg.

In the case of `CNc1n[nH]c2cc(-c3cncc(Cl)c3N3CCC4(CCNC4=O)CC3)ccc12` [Example 34, 8-[3-Chloro-5-(3-methylamino-1H-indazol-6-yl)-pyridin-4-yl]-2,8-diaza-spiro[4.5]decan-1-one], in series [1], the “Human Clint” value is 52 µL/min/mg.

As to `Cn1cc(-c2ccc(-c3cncc(C(F)(F)F)c3N3CCC4(CC3)CNC(=O)O4)cc2)cn1` [Example 35, 8-{3-[4-(1-Methyl-1H-pyrazol-4-yl)-phenyl]-5-trifluoromethyl-pyridin-4-yl}-1-oxa-3,8-diaza-spiro[4.5]decan-2-one], the microsomal CLint at 0.8 μM in series [1] was under 10 µL/min/mg.

As to `CN1c2ccc(-c3cncc(Cl)c3N3CCC4(CC3)NC(=O)NC4=O)cc2CS1(=O)=O` [Example 37, 8-[3-Chloro-5-(1-methyl-2,2-dioxo-2,3-dihydro-1H-2l6-benzo[c]isothiazol-5-yl)-pyridin-4-yl]-1,3,8-triaza-spiro[4.5]decane-2,4-dione], in series [1], the “Human Clint” value is 11 µL/min/mg.

As to `CC1=NNC(=O)C12CCN(c1c(Cl)cncc1-c1ccc3c(c1)CS(=O)(=O)N3C)CC2` [Example 41, 8-[3-Chloro-5-(1-methyl-2,2-dioxo-2,3-dihydro-1H-2l6-benzo[c]isothiazol-5-yl)-pyridin-4-yl]-4-methyl-2,3,8-triaza-spiro[4.5]dec-3-en-1-one], the “Human Clint” value in series [1] was determined as 85 µL/min/mg.

For the compound `Cn1cc(-c2ccc(-c3cncc(C(F)(F)F)c3N3CCC4(CCNC4=O)CC3)cc2)cn1` [Example 45, 8-{3-[4-(1-Methyl-1H-pyrazol-4-yl)-phenyl]-5-trifluoromethyl-pyridin-4-yl}-2,8-diaza-spiro[4.5]decan-1-one], the “Human Clint” value in series [1] worked out at 81 µL/min/mg.

For the compound `CC1=NC2(CCN(c3c(Cl)cncc3-c3ccc4c(c3)CS(=O)(=O)N4C)CC2)C(=O)N1` [Example 46, 8-[3-Chloro-5-(1-methyl-2,2-dioxo-2,3-dihydro-1H-2l6-benzo[c]isothiazol-5-yl)-pyridin-4-yl]-2-methyl-1,3,8-triaza-spiro[4.5]dec-1-en-4-one], in series [1], the “Human Clint” value turned out to be 16 µL/min/mg.

Take `CC(C)(O)Cn1cc(-c2ccc(-c3cncc(Cl)c3N3CCC4(CCNC4=O)CC3)cc2)cn1` [Example 47, 8-(3-Chloro-5-{4-[1-(2-hydroxy-2-methyl-propyl)-1H-pyrazol-4-yl]-phenyl}-pyridin-4-yl)-2,8-diaza-spiro[4.5]decan-1-one]: the “Human Clint” value in series [1] was 23 µL/min/mg.

Regarding `CN1C(=O)NC(=O)C12CCN(c1c(Cl)cncc1-c1ccc(-c3cnn(C)c3)cc1)CC2` [Example 49, 8-{3-Chloro-5-[4-(1-methyl-1H-pyrazol-4-yl)-phenyl]-pyridin-4-yl}-1-methyl-1,3,8-triaza-spiro[4.5]decane-2,4-dione], in series [1], the “Human Clint” value stood at 20 µL/min/mg.

Turning to `CN1c2ccc(-c3cncc(Cl)c3N3CCC4(CC3)C(=O)NN=C4C(F)(F)F)cc2CS1(=O)=O` [Example 58, 8-[3-Chloro-5-(1-methyl-2,2-dioxo-2,3-dihydro-1H-2l6-benzo[c]isothiazol-5-yl)-pyridin-4-yl]-4-trifluoromethyl-2,3,8-triaza-spiro[4.5]dec-3-en-1-one], in series [1], the “Human Clint” value was 89 µL/min/mg.

In the case of `Cn1ccc(-c2ccc(-c3cncc(Cl)c3N3CCC4(CCNC4=O)CC3)cc2)n1` [Example 67, 8-{3-Chloro-5-[4-(1-methyl-1H-pyrazol-3-yl)-phenyl]-pyridin-4-yl}-2,8-diaza-spiro[4.5]decan-1-one], the IC50 with Wnt pathway was 41 nM.

Take `CN1c2ccc(-c3cncc(F)c3N3CCC4(CC3)CNC(=O)O4)cc2CS1(=O)=O` [Example 80, 8-[3-Fluoro-5-(1-methyl-2,2-dioxo-2,3-dihydro-1H-2l6-benzo[c]isothiazol-5-yl)-pyridin-4-yl]-1-oxa-3,8-diaza-spiro[4.5]decan-2-one]: the “Human Clint” value in series [1] came out at 18 µL/min/mg.

`Cn1cc(-c2ccc(-c3cncc(Cl)c3N3CCC4(CC3)CC(=O)NC4=O)cc2)cn1` [Example 86, 8-{3-Chloro-5-[4-(1-methyl-1H-pyrazol-4-yl)-phenyl]-pyridin-4-yl}-2,8-diaza-spiro[4.5]decane-1,3-dione]: the IC50 in the series on Wnt pathway came to 2.2 nM.

As to `Cn1ncc2cc(-c3cncc(Cl)c3N3CCC4(CCNC4=O)CC3)ccc21` [Example 91, 8-[3-Chloro-5-(1-methyl-1H-indazol-5-yl)-pyridin-4-yl]-2,8-diaza-spiro[4.5]decan-1-one], in the series on Wnt pathway, the IC50 came to 8.2 nM.
